From patent US4683198A, “Novel maltose dehydrogenase, process for its production, and analytical method using the same” (Toyo Jozo Kabushiki Kaisha, priority 1983, dated 1987)
Like-named read-outs stand apart in the source and are kept apart here.

What was measured:
serum amylase = test: Serum amylase assay with different hydrogen acceptors (Example 12); assay type: biochemical; conditions: 0.002% hydrogen acceptor; human serum 20 μl; 37° C.; absorbancy at 550 nm
Description: 40 mM phosphate buffer pH 7.0
maltose dehydrogenase (acceptor) (16.7 U/ml)
Human serun (20 μl) was added to the reaction mixture hereinabove (the hydrogen acceptor is shown in Table 6), and the material was incubated at 37° C. for 5 mins. Reaction mixture II (0.4 ml) was added thereto and the material was incubated at 37° C. Changes in absorbancy at 550 nm were measured. The results are shown in Table 6, from which it will be seen that serum amylase can be measured whatever the hydrogen acceptor.

[1] = system: maltose dehydrogenase (acceptor); test: Hydrogen acceptor (coenzyme) of maltose dehydrogenase (acceptor) in oxidation of maltose; assay type: biochemical, Staphylococcus sp. B-0875; design: Relative Activity (%): concentration or dose not given beside the values; conditions: for ability to act as hydrogen acceptor: oxidative reaction of maltose; for Relative Activity (%): as hydrogen acceptor, Reaction pH 7.5, substrate maltose
Description: (§1) The above reaction mixture (1.0 ml) in a small test tube is pre-incubated at 37° C. Enzyme solution (10 μl) is added thereto and incubated at 37° C. for 10 min. The reaction is stopped by adding 0.1N HCl (2.0 ml) and the optical density at 550 nm (As) is measured. Distilled water (10 μl) is added as a control and the amount measured at 550 nm (Ab).
Hydrogen acceptor (coenzyme) of maltose dehydrogenase (acceptor) in the oxidative reaction (dehydrogenation) of maltose is measured according to the assay method. Maltose dehydrogenase (acceptor) of the present invention requires no NAD or NADP as a coenzyme. A decrease in soluble oxygen is observed at least whwn PMS, 1-methoxy-phenazine methosulfate (MPMS) or meldola blue is used as a hydrogen acceptor.

[2] = system: maltose dehydrogenase (acceptor); assay type: biochemical, Staphylococcus sp. B-0875
Description: as §1
Metallic ions, EDTA or KCN shown in Table 4 is added to the reaction mixture as in the assay method, and the effect thereof is measured. The results are shown in […]

[3] = system: maltose dehydrogenase (acceptor); test: Effect of surface-active agents on enzyme activity; assay type: biochemical, Staphylococcus sp. B-0875; conditions: Concentration 0.1%, in place of 0.2% Triton X-100; no addition = 100
Description: as §1
Surface active agents as in Table 5 are added one at a time to aliquots of the reaction mixture as in the assay method, in place of 0.2% Triton X-100, and the enzyme activity is measured.

[4] = system: maltose dehydrogenase (acceptor); test: Substrate specificity of maltose dehydrogenase (acceptor), PMS/NTB assay at 550 nm; assay type: biochemical, Staphylococcus sp. B-0875; conditions: substrate each 0.1M, 0.1 ml, in place of maltose; 37° C., 10 min
Description: 20 mM phosphate buffer (pH 7.5)
0.1% bovine serum albumin
0.025% nitrotetrazolium blue (NTB)
0.001% phenazine methosulfate (PMS: hydrogen acceptor)
as §1
One unit is defined by the amount of enzyme which oxidizes (dehydrogenates)1 μmole of maltose in one minute and enzyme activity is calculated by the following equation: [formula]
Maltose in the above assay method is replaced by the substrates in Table 2 (each 0.1M, 0.1 ml) and assayed according to the above assay method.

[5] = system: maltose dehydrogenase (acceptor); test: Km value, substrate concentration-reaction rate relation; assay type: biochemical, Staphylococcus sp. B-0875; conditions: approximate, calculated according to FIG. 5; no linear Lineweaver-Burk plot
Excerpt: Under the experimental conditions, Vmax cannot be determined and no linear Lineweaver-Burk plot can be obtained.

[6] = 1.0 mM additive in reaction mixture, no addition = 100

CC(=O)Nc1cccc2c1nc1ccccc1[n+]2C [1-acetamide-phenazine methosulfate]
Relative Amylase Activity (serum amylase): 103%
ability to act as hydrogen acceptor [1]: can also be a hydrogen acceptor

O=C1C(Cl)=CC(=Nc2ccc(O)cc2)C=C1Cl [2,6-dichlorophenolindophenol]
ability to act as hydrogen acceptor [1]: can also be a hydrogen acceptor

[Ba+2].[Cl-].[Cl-] [BaCl2]
Relative Activity (%) [2, 6]: 61.2%

[Ca+2].[Cl-].[Cl-] [CaCl2]
Relative Activity (%) [2, 6]: 101%

CCCCCCCCCCCCCCCC[N+](C)(C)C.[Cl-] [Cetyl trimethylammonium chloride]
Relative Activity (%) [3]: 94%

[Cl-].[Cl-].[Co+2] [CoCl2]
Relative Activity (%) [2, 6]: 17.9%

[Cl][Cu][Cl] [CuCl2]
Relative Activity (%) [2, 6]: 0%

O=C(O)CN(CCN(CC(=O)O)CC(=O)O)CC(=O)O [EDTA]
Relative Activity (%) [2]: 73%

[Cl-].[Li+] [LiCl]
Relative Activity (%) [2, 6]: 95%

COc1cccc2c1nc1ccccc1[n+]2C [MPMS, 1-methoxy-phenazine methosulfate]
Relative Amylase Activity (serum amylase): 102%
Relative Activity (%) [1]: 30%

[Cl-].[Cl-].[Mg+2] [MgCl2]
Relative Activity (%) [2, 6]: 106%

[Cl][Mn][Cl] [MnCl2]
Relative Activity (%) [2, 6]: 13.4%

NC(=O)c1ccc[n+]([C@@H]2O[C@H](COP(=O)([O-])OP(=O)(O)OC[C@H]3O[C@@H](n4cnc5c(N)ncnc54)[C@H](O)[C@@H]3O)[C@@H](O)[C@H]2O)c1 [NAD, nicotine adenine dinucleotide]
Relative Activity (%) [1]: 0%

NC(=O)c1ccc[n+]([C@@H]2O[C@H](COP(=O)([O-])OP(=O)(O)OC[C@H]3O[C@@H](n4cnc5c(N)ncnc54)[C@H](OP(=O)(O)O)[C@@H]3O)[C@@H](O)[C@H]2O)c1 [NADP, nicotine adenine dinucleotide phosphate]
Relative Activity (%) [1]: 0%

COc1cc(-c2ccc(-[n+]3nc(-c4ccccc4)nn3-c3ccc([N+](=O)[O-])cc3)c(OC)c2)ccc1-[n+]1nc(-c2ccccc2)nn1-c1ccc([N+](=O)[O-])cc1 [NTB, nitrotetrazolium blue]
Relative Activity (%) [1]: 0%

[N-]=[N+]=[N-].[Na+] [NaN3]
Relative Activity (%) [2, 6]: 95%

C[n+]1c2ccccc2nc2ccccc21 [PMS, phenazine methosulfate]
Relative Amylase Activity (serum amylase): 100%
Relative Activity (%) [1]: 100%

CCCCCCCCCCCCOS(=O)(=O)O [SDS]
Relative Activity (%) [3]: 3.8%

CCCCCCCCCCCCCCCC(=O)N(C)CC(=O)[O-].[Na+] [Sarcosinate PN]
Relative Activity (%) [3]: 114%

C[C@H](CCC(=O)O)[C@H]1CC[C@H]2[C@@H]3[C@H](O)C[C@@H]4C[C@H](O)CC[C@]4(C)[C@H]3C[C@H](O)[C@]12C [Sodium cholate]
Relative Activity (%) [3]: 86%

[Cl-].[Cl-].[Zn+2] [ZnCl2]
Relative Activity (%) [2, 6]: 4.5%

CCO [ethanol]
Relative Activity (%) [4]: 0%

O=C(CO)[C@@H](O)[C@H](O)[C@H](O)CO [fructose]
Relative Activity (%) [4]: 31.4%

O=C[C@H](O)[C@@H](O)[C@@H](O)[C@H](O)CO [galactose]
Relative Activity (%) [4]: 56.1%

O=C[C@H](O)[C@@H](O)[C@H](O)[C@H](O)CO [glucose]
Relative Activity (%) [4]: 80.0%

OCC(O)CO [glycerol]
Relative Activity (%) [4]: 0%

O[C@H]1[C@H](O)[C@@H](O)[C@H](O)[C@@H](O)[C@H]1O [inositol]
Relative Activity (%) [4]: 0%

OC[C@H]1O[C@@H](O[C@H]2[C@H](O)[C@@H](O)C(O)O[C@@H]2CO)[C@H](O)[C@@H](O)[C@H]1O (stereo partly drawn) [lactose]
Relative Activity (%) [4]: 58.2%

OC[C@H]1O[C@H](O[C@H]2[C@H](O)[C@@H](O)[C@@H](O[C@H]3[C@H](O)[C@@H](O)[C@@H](O[C@H]4[C@H](O)[C@@H](O)[C@@H](O[C@H]5[C@H](O)[C@@H](O)[C@@H](O[C@H]6[C@H](O)[C@@H](O)[C@@H](O[C@H]7[C@H](O)[C@@H](O)C(O)O[C@@H]7CO)O[C@@H]6CO)O[C@@H]5CO)O[C@@H]4CO)O[C@@H]3CO)O[C@@H]2CO)[C@H](O)[C@@H](O)[C@@H]1O (stereo partly drawn) [maltoheptaose]
Relative Activity (%) [4]: 22.4%

OC[C@H]1O[C@H](O[C@H]2[C@H](O)[C@@H](O)[C@@H](O[C@H]3[C@H](O)[C@@H](O)[C@@H](O[C@H]4[C@H](O)[C@@H](O)[C@@H](O[C@H]5[C@H](O)[C@@H](O)[C@@H](O[C@H]6[C@H](O)[C@@H](O)C(O)O[C@@H]6CO)O[C@@H]5CO)O[C@@H]4CO)O[C@@H]3CO)O[C@@H]2CO)[C@H](O)[C@@H](O)[C@@H]1O (stereo partly drawn) [maltohexaose]
Relative Activity (%) [4]: 28.6%

OC[C@H]1O[C@H](O[C@H]2[C@H](O)[C@@H](O)[C@@H](O[C@H]3[C@H](O)[C@@H](O)[C@@H](O[C@H]4[C@H](O)[C@@H](O)[C@@H](O[C@H]5[C@H](O)[C@@H](O)C(O)O[C@@H]5CO)O[C@@H]4CO)O[C@@H]3CO)O[C@@H]2CO)[C@H](O)[C@@H](O)[C@@H]1O (stereo partly drawn) [maltopentaose]
Relative Activity (%) [4]: 36.4%

OC[C@H]1O[C@H](O[C@H]2[C@H](O)[C@@H](O)[C@H](O)O[C@@H]2CO)[C@H](O)[C@@H](O)[C@@H]1O [maltose]
Km [5]: ~3800 µM
Relative Activity (%) [4]: 100%

OC[C@H]1O[C@H](O[C@H]2[C@H](O)[C@@H](O)[C@@H](O[C@H]3[C@H](O)[C@@H](O)[C@@H](O[C@H]4[C@H](O)[C@@H](O)C(O)O[C@@H]4CO)O[C@@H]3CO)O[C@@H]2CO)[C@H](O)[C@@H](O)[C@@H]1O (stereo partly drawn) [maltotetraose]
Relative Activity (%) [4]: 60.3%

OC[C@H]1O[C@H](O[C@H]2[C@H](O)[C@@H](O)[C@@H](O[C@H]3[C@H](O)[C@@H](O)C(O)O[C@@H]3CO)O[C@@H]2CO)[C@H](O)[C@@H](O)[C@@H]1O (stereo partly drawn) [maltotriose]
Relative Activity (%) [4]: 77.4%

O=C[C@@H](O)[C@@H](O)[C@H](O)[C@H](O)CO [mannose]
Relative Activity (%) [4]: 52.4%

C[N+](C)=c1ccc2nc3c(ccc4ccccc43)oc-2c1 [meldola blue, 9-dimethylaminobenzophenazoxonium chloride]
Relative Amylase Activity (serum amylase): 97.4%
Relative Activity (%) [1]: 20%

CN(C)c1ccc2nc3ccc(=[N+](C)C)cc-3sc2c1 [methylene blue]
Relative Activity (%) [1]: 0%

OC[C@H]1O[C@H](OC[C@H]2O[C@H](O[C@]3(CO)O[C@H](CO)[C@@H](O)[C@@H]3O)[C@H](O)[C@@H](O)[C@@H]2O)[C@H](O)[C@@H](O)[C@H]1O [raffinose]
Relative Activity (%) [4]: 0%

OC[C@@H](O)[C@@H](O)[C@H](O)[C@@H](O)CO [sorbitol]
Relative Activity (%) [4]: 0%

OC[C@H]1O[C@@](CO)(O[C@H]2O[C@H](CO)[C@@H](O)[C@H](O)[C@H]2O)[C@@H](O)[C@@H]1O [sucrose]
Relative Activity (%) [4]: 0%

O=C[C@H](O)[C@@H](O)[C@H](O)CO [xylose]
Relative Activity (%) [4]: 53.7%

OC[C@H]1O[C@H](O[C@H]2[C@H](O)[C@@H](O)[C@H](O)O[C@@H]2CO)[C@H](O)[C@@H](O)[C@@H]1O [β-maltose]
Km [5]: 1360 µM

Sodium laurylbenzene sulfate
Relative Activity (%) [3]: 0.2%

Span-85
Relative Activity (%) [3]: 103%

Triton X-100
Relative Activity (%) [3]: 115%

Tween-80
Relative Activity (%) [3]: 104%
